# Results published in paper PMC10724293, “New ruthenium-xanthoxylin complex eliminates colorectal cancer stem cells by targeting the heat shock protein 90 chaperone” (Cell Death & Disease, 2023).
# Tests used:
# HCT116 cells [1] = assay: Functional cell death assay with inhibitors/activator; assay type: cell-based, human; details: then 10 µM RXC for 48 h; for effect of autophagy inhibitor on RXC-induced cell death: pretreated with 50 µM CQ or 5 mM 3-MA, annexin V-FITC/PI
# From the text: (§1) For apoptosis detection or functional assays, cell viability was quantified using annexin V-FITC/PI (FITC Annexin V Apoptosis Detection Kit I, BD Biosciences, San Jose, CA, USA) or YO-PRO-1/PI (Sigma-Aldrich Co.). The following inhibitors were used: chloroquine (autophagy inhibitor, Ipca Laboratories, Mumbai, MH, India); 3-methyladenine (autophagy inhibitor, Sigma-Aldrich Co.); and lithium chloride (Wnt activator, Sigma-Aldrich Co.).
# WT SV40 MEF = assay: Alamar blue survival curves; assay type: cell-based; details: Mus musculus, 72 h
# Experimental: (§2) The Alamar blue assay was used to determine cell viability as previously described. Cells were seeded into 96-well plates at a density of 7 × 10^3 cells per well for adherent cells or 3 × 10^4 cells per well for suspended cells. The drug was added to each well after 24 h of incubation for adherent cells or immediately for suspended cells and incubated for an additional 72 h. […] Each well received 100 µM resazurin (Sigma-Aldrich Co. St. Louis, MO, United States) four (for cell lines) or 24 (for primary culture) h before the end of the incubation. A SpectraMax 190 Microplate Reader (Molecular Devices, Sunnyvale, CA, USA) was used to measure absorbance at 570 and 600 nm.
# BAD KO SV40 MEF = assay: Alamar blue survival curves and cell death; assay type: cell-based, mouse; details: Mus musculus; BAD KO SV40 MEF; Alamar blue, 72 h
# Experimental: as §2, §1
# 4T1 = assay: Alamar blue cytotoxicity assay; assay type: cell-based, mouse; details: Mus musculus, 72 h, read-out: IC50 and 95%CI
# Experimental: as §2
# B16-F10 = assay: Alamar blue cytotoxicity assay; assay type: cell-based, mouse; details: Mus musculus, 72 h, read-out: IC50 and 95%CI
# Experimental: as §2
# A-375 = assay: Alamar blue cytotoxicity assay; assay type: cell-based, human; details: Homo sapiens, 72 h, read-out: IC50 and 95%CI
# Experimental: as §2
# A549 = assay: Alamar blue cytotoxicity assay; assay type: cell-based, human; details: Homo sapiens, 72 h, read-out: IC50 and 95%CI
# Experimental: as §2
# CAL 27 = assay: Alamar blue cytotoxicity assay; assay type: cell-based, human; details: Homo sapiens, 72 h, read-out: IC50 and 95%CI
# Experimental: as §2
# DU 145 = assay: Alamar blue cytotoxicity assay; assay type: cell-based, human; details: Homo sapiens, 72 h, read-out: IC50 and 95%CI
# Experimental: as §2
# H1299 = assay: Alamar blue cytotoxicity assay; assay type: cell-based, human; details: Homo sapiens, NCI-H1299, 72 h, read-out: IC50 and 95%CI
# Experimental: as §2
# HCT116 = assay: Alamar blue cytotoxicity assay; assay type: cell-based, human; details: Homo sapiens, HCT-116, 72 h, read-out: IC50 and 95%CI
# Experimental: as §2
# HL-60 = assay: Alamar blue cytotoxicity assay; assay type: cell-based, human; details: Homo sapiens, 72 h, read-out: IC50 and 95%CI
# Experimental: as §2
# HSC-3 = assay: Alamar blue cytotoxicity assay; assay type: cell-based, human; details: Homo sapiens, 72 h, read-out: IC50 and 95%CI
# Experimental: as §2
# HepG2 = assay: Alamar blue cytotoxicity assay; assay type: cell-based, human; details: Homo sapiens, 72 h, read-out: IC50 and 95%CI
# Experimental: as §2
# JUKART = assay: Alamar blue cytotoxicity assay; assay type: cell-based, human; details: Homo sapiens, 72 h, read-out: IC50 and 95%CI
# Experimental: as §2
# K-562 = assay: Alamar blue cytotoxicity assay; assay type: cell-based, human; details: Homo sapiens, K562, 72 h, read-out: IC50 and 95%CI
# Experimental: as §2
# KG-1a = assay: Alamar blue cytotoxicity assay; assay type: cell-based, human; details: Homo sapiens, 72 h, read-out: IC50 and 95%CI
# Experimental: as §2
# MDA-MB-231 = assay: Alamar blue cytotoxicity assay; assay type: cell-based, human; details: Homo sapiens, 72 h, read-out: IC50 and 95%CI
# Experimental: as §2
# NB4 = assay: Alamar blue cytotoxicity assay; assay type: cell-based, human; details: Homo sapiens, NB-4, 72 h, read-out: IC50 and 95%CI
# Experimental: as §2
# PANC-1 = assay: Alamar blue cytotoxicity assay; assay type: cell-based, human; details: Homo sapiens, 72 h, read-out: IC50 and 95%CI
# Experimental: as §2
# SCC-25 = assay: Alamar blue cytotoxicity assay; assay type: cell-based, human; details: Homo sapiens, 72 h, read-out: IC50 and 95%CI
# Experimental: as §2
# SCC-9 = assay: Alamar blue cytotoxicity assay; assay type: cell-based, human; details: Homo sapiens, 72 h, read-out: IC50 and 95%CI
# Experimental: as §2
# SCC4 = assay: Alamar blue cytotoxicity assay; assay type: cell-based, human; details: Homo sapiens, SCC-4, 72 h, read-out: IC50 and 95%CI
# Experimental: as §2
# THP-1 = assay: Alamar blue cytotoxicity assay; assay type: cell-based, human; details: Homo sapiens, 72 h, read-out: IC50 and 95%CI
# Experimental: as §2
# U-87 MG = assay: Alamar blue cytotoxicity assay; assay type: cell-based, human; details: Homo sapiens, 72 h, read-out: IC50 and 95%CI
# Experimental: as §2
# BJ = assay: Alamar blue cytotoxicity assay, noncancerous cells; assay type: cell-based, human; details: Homo sapiens, 72 h, read-out: IC50 and 95%CI
# Experimental: as §2
# MRC-5 = assay: Alamar blue cytotoxicity assay, noncancerous cells; assay type: cell-based, human; details: Homo sapiens, MRC5, MRC-5 noncancerous cells, 72 h, read-out: IC50 and 95%CI
# Experimental: as §2
# PBMC = assay: Alamar blue cytotoxicity assay, noncancerous cells; assay type: cell-based, human; details: Homo sapiens, 72 h, read-out: IC50 and 95%CI
# Experimental: as §2
# [2] = tested on: CR01 (colorectal carcinoma); assay: Alamar blue viability of primary cancer cells; assay type: cell-based, human; details: primary CRC (first listed); 25 μg/ml (RXC 31.3 μM, DOX 46 μM); 96 h
# Experimental: as §2
# (§3) CR03 (metastatic cholangiocarcinoma) CR04 (malignant papillary mesothelioma) […]
# (§4) Figure S1. […] Cells were exposed to 25 […]
# (§5) measured after 96 h using the Alamar blue assay. The data are presented as the […]
# (§6) mean ± S.E.M. of four replicates. * P < 0.05 compared to CTL by one-way ANOVA […]
# (§7) followed by Dunnett's multiple comparisons test. […]
# [3] = tested on: CR03 (metastatic cholangiocarcinoma); assay: Alamar blue viability of primary cancer cells; assay type: cell-based, human; details: 25 μg/ml (RXC 31.3 μM, DOX 46 μM), 96 h
# Experimental: as §2, §3, §4, §5, §6, §7
# [4] = tested on: CR04 (malignant papillary mesothelioma); assay: Alamar blue viability of primary cancer cells; assay type: cell-based, human; details: primary papilliferous malignant mesothelioma; 25 μg/ml (RXC 31.3 μM, DOX 46 μM); 96 h
# Experimental: as §2, §3, §4, §5, §6, §7
# HCT116 cells [5] = assay: Cell cycle distribution and internucleosomal DNA fragmentation by flow cytometry; assay type: cell-based, human; details: 1 µM, positive control
# Experimental: For quantification of internucleosomal DNA fragmentation and cell cycle distribution, the cells were stained with PI using a solution containing 0.1% Triton X-100, 2 µg/ml PI, 0.1% sodium citrate, and 100 µg/ml RNAse (all from Sigma-Aldrich) and incubated in the dark for 15 min at room temperature. Finally, cell fluorescence was measured using flow cytometry.
# For all flow cytometry analyses, cell fluorescence was measured with a BD LSRFortessa cytometer and analyzed by BD FACSDiva Software (BD Biosciences) and FlowJo Software 10 (FlowJo LLC; Ashland, OR, USA). At least 10,000 events were evaluated per sample for intracellular staining, and at least 30,000 events were acquired per sample for cell surface protein staining. FSC-A versus FCS-H and SCC-A versus SCC-H were used to remove the doublets. The analysis excluded cellular debris.
# HCT116 cells [6] = assay: CRC tumor growth xenograft model; assay type: in vivo, C. B-17 SCID mice; details: RXC 2 mg/kg, DOX 0.8 mg/kg, i.p. once a day for 2 weeks
# Experimental: HCT116 cells (10^7 cells/500 μl) were inoculated subcutaneously into the left front armpit of mice, as previously reported. The animals were then treated intraperitoneally (200 μl/animal) once a day for 2 weeks. […] The animals were euthanized with an anesthetic overdose (thiopental, 100 mg/kg) 1 day after treatment ended, and tumors were excised, weighed, and processed for histological analysis. The inhibition ratio (percent) was calculated as follows: inhibition ratio (percent) = [(A − B)/A] × 100, where A is the average tumor weight of the negative control and B is the treated group.
# [7] = RXC 2 mg/kg, DOX 0.8 mg/kg
# From the text: To evaluate toxicological features, all animals were weighed at the beginning and end of the experiment. Throughout the experiment, the animals were monitored for abnormalities. An Advia 60 hematology system was used to perform hematological analyses (Bayer, Leverkusen, Germany). The livers, kidneys, lungs, and hearts were removed, weighed, and examined for color change, gross lesion formation, and/or hemorrhaging before being fixed in 4% formaldehyde, dehydrated in a graded alcohol series, washed in xylene, and embedded in paraffin wax. The tissue was cut into 5 μm thick slices, stained with hematoxylin-eosin and/or periodic acid-Schiff (liver and kidney), and examined histologically under optical microscopy.
smiles,measurement,setting,value
"Cn1cnc(N)c2ncnc1-2 [3-MA, 3-methyladenine]",effect of autophagy inhibitor on RXC-induced cell death,HCT116 cells [1],enhanced RXC-induced cell death
"O=c1[nH]cc(F)c(=O)[nH]1 [5-FU, 5-fluorouracil, reference compound]",IC50,WT SV40 MEF,10000 nM
same,IC50,BAD KO SV40 MEF,25800 nM
"CCN(CC)CCCC(C)Nc1ccnc2cc(Cl)ccc12 (stereo not shown) [CQ, chloroquine]",effect of autophagy inhibitor on RXC-induced cell death,HCT116 cells [1],enhanced RXC-induced cell death
"COc1cccc2c1C(=O)c1c(O)c3c(c(O)c1C2=O)C[C@@](O)(C(=O)CO)C[C@@H]3O[C@H]1C[C@H](N)[C@H](O)[C@H](C)O1 [DOX, Doxorubicin, reference compound]",IC50,4T1,1700 nM
same,IC50,B16-F10,530 nM
same,IC50,A-375,160 nM
same,IC50,A549,2350 nM
same,IC50,CAL 27,180 nM
same,IC50,DU 145,220 nM
same,IC50,H1299,770 nM
same,IC50,HCT116,3300 nM
same,IC50,HL-60,90 nM
same,IC50,HSC-3,1430 nM
same,IC50,HepG2,90 nM
same,IC50,JUKART,30 nM
same,IC50,K-562,1500 nM
same,IC50,KG-1a,400 nM
same,IC50,MDA-MB-231,550 nM
same,IC50,NB4,110 nM
same,IC50,PANC-1,1060 nM
same,IC50,SCC-25,1580 nM
same,IC50,SCC-9,1210 nM
same,IC50,SCC4,70 nM
same,IC50,THP-1,120 nM
same,IC50,U-87 MG,440 nM
same,IC50,BJ,730 nM
same,IC50,MRC-5,1610 nM
same,IC50,PBMC,1280 nM
same,reduced cell viability,[2],71.0%
same,reduced cell viability,[3],65.6%
same,reduced cell viability,[4],64.3%
same,cell cycle effect,HCT116 cells [5],G2/M arrest
same,tumor mass inhibition,HCT116 cells [6],46.7%
same,hematological analysis,[7]; i.p. once a day for 2 weeks,"Decreases in erythrocytes, hemoglobin, hematocrit, MCV and leukocytes"
same,animals died during the treatment,"[7]; i.p. once a day for 2 weeks, n = 15 per group",four
same,body weight,"[7]; i.p. once a day for 2 weeks, p < 0.05",decrease in body weight
same,liver histology,[7]; mainly in treated animals,focal areas of hepatocyte coagulation necrosis
same,kidney histology,[7]; more evident than in control,focal areas of coagulation necrosis of the renal cortex tubules
[Cl-].[Li+] [lithium chloride],effect of Wnt activator on RXC-induced cell death,"HCT116 cells [1]; pretreated with 25 mM LiCl, YO-PRO-1/PI",ineffective in preventing RXC-induced cell death
